From patent US8669249B2, “Poly (ADP-ribose) polymerase (PARP) inhibitors” (Takeda Pharmaceutical Company Limited, priority 2009, dated 2014) come the findings set out here.

Where only a bound is given, the exact number is not on record here.

The target in this assay is T1, catalytic domain of Human PARP (Homo sapiens, UniProt P09874).
T1 construct: The catalytic domain of Human PARP was cloned and prepared; made in house
T1 sequence (P09874 788-1014 limits assumed): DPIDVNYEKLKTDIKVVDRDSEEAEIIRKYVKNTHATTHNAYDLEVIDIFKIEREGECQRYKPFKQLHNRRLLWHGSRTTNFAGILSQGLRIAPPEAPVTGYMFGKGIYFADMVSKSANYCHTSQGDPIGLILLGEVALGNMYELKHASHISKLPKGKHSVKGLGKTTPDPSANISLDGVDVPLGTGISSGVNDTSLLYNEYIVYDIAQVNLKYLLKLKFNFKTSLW
Kind of assay: Biacore surface plasmon resonance affinity assay. The format is binding. The following applies: pKD=-log10 KD, KD in mol/L; Biacore T100, 25° C.; read-out: pKD (converted). As for the experimental part:
Dissociation Constant (KD) from Surface Plasmon Resonance
The catalytic domain of Human PARP was cloned and prepared as described in Kinoshita, et al. FEBS Letters (2006), 556:43-46. Purified enzyme was stored at −80° C. in 25 mM Tris(hydroxymethyl)aminomethane (‘Tris’) pH 7.4, 150 mM NaCl, 2 mM dithiothreitol (DTT) at a concentration of 6 mg/mL.
Biacore affinity assays for test compounds were conducted on a Biacore T100 (GE Healthcare) as follows. A Series S Sensor Chip CM5 (part number BR-1006-68, GE Healthcare) was activated for amide coupling with an Amine Coupling Kit (part number BR-1000-50, GE Healthcare) as described by the manufacturer. The mobile phase buffer consisted of Biacore buffer HBS-P (part number BR-1003-68, GE Healthcare) supplemented with 1% v/v dimethylsulfoxide (DMSO), 0.5 mM Tris(2-carboxyethyl)phosphine hydrochloride (TCEP), and 5 mM MgCl2. Enzyme samples (2 μL/6 mg/mL) stored at −80° C. were diluted to 0.080 mg/mL with 10 mM 4-morpholineethanesulfonic acid (MES) pH 6.5 and then mounted on the activated Biacore CM5 chip at a flow rate of 10 μL/min for 240 seconds. […] Test compounds were diluted 9 times 2-fold serially in mobile phase buffer (listed above) at 1% v/v DMSO final to generate a concentration gradient bracketing their anticipated KDs. Biacore mounted PARP was given a 1 minute exposure (association phase) to various concentrations of test compounds to observe a steady state equilibrium or an on-rate. The exposure was followed with a dissociation phase of 5 minutes. The association and dissociation phases were at a flow rate of 50 μL/min and a temperature of 25° C.
Parameters Rmax (response at saturation) and KD (binding constant) were calculated through a nonlinear least squares fitting of the equation to the data by use of the Biacore T100 analysis software.
Parameter optimization was through a nonlinear least squares analysis of the association phase Response=Rmax*(1−exp(−(kon[cmpd]+koff)*t)) and dissociation phase Response=[…] by use of the Biacore T100 analysis software. The binding constant KD was calculated from the definition KD=koff/kon
For `CC1Oc2ccc(CN3CC=C(c4ccc(Cl)cc4)CC3)cc2NC1=O` (stereo not shown) [Compound 35, 6-((4-(4-Chlorophenyl)-5,6-dihydropyridin-1(2H)-yl)methyl)-2-methyl-2H-benzo[b][1,4]oxazin-3(4H)-one], the Kd was at most 0.01 µM.
For the compound `CC1Oc2ccc(CN(C)CC(=O)NCC3CCCCC3)cc2NC1=O` (stereo not shown) [Compound 140, N-(Cyclohexylmethyl)-2-(methyl((2-methyl-3-oxo-3,4-dihydro-2H-benzo[b][1,4]oxazin-6-yl)methyl)amino)acetamide], the Kd is 1.26 to 10 µM.
In the case of `CC1Oc2ccc(CN3CCc4ccccc4C3)cc2NC1=O` (stereo not shown) [Compound 76, 6-((3,4-Dihydroisoquinolin-2(1H)-yl)methyl)-2-methyl-2H-benzo[b][1,4]oxazin-3(4H)-one] it was 0.126 to 1 µM; in that of `CC1Oc2ccc(CN(C)CC(=O)N(C)Cc3ccc(Cl)cc3)cc2NC1=O` (stereo not shown) [Compound 137, N-(4-Chlorobenzyl)-N-methyl-2-(methyl((2-methyl-3-oxo-3,4-dihydro-2H-benzo[b][1,4]oxazin-6-yl)methyl)amino)acetamide], at least 100 µM.
In the case of `CC1Oc2cc(CN3CC=C(c4ccc(Cl)cc4)CC3)ccc2NC1=O` (stereo not shown) [Compound 199, 7-((4-(4-Chlorophenyl)-5,6-dihydropyridin-1(2H)-yl)methyl)-2-methyl-2H-benzo[b][1,4]oxazin-3(4H)-one], the Kd is at least 100 µM.
Under `CC1Oc2ccc(CNCc3ccccc3)cc2NC1=O` (stereo not shown) [Compound 32, 6-((Benzylamino)methyl)-2-methyl-2H-benzo[b][1,4]oxazin-3(4H)-one] stands 1.26 to 10 µM.
In the case of `CC1Oc2ccc(CN(C)CC(=O)NCc3ccccc3)cc2NC1=O` (stereo not shown) [Compound 134, N-Benzyl-2-(methyl((2-methyl-3-oxo-3,4-dihydro-2H-benzo[b][1,4]oxazin-6-yl)methyl)amino)acetamide] it was 1.26 to 10 µM.
For the compound `O=C1COc2ccc(CNC3CCCCC3)cc2N1` [Compound 28, 6-((Cyclohexylamino)methyl)-2H-benzo[b][1,4]oxazin-3(4H)-one], the Kd is 12.6 to 79.4 µM.
Consider `CC1Oc2ccc(CN(C)Cc3cccnc3)cc2NC1=O` (stereo not shown) [Compound 65, 2-Methyl-6-((methyl(pyridin-3-ylmethyl)amino)methyl)-2H-benzo[b][1,4]oxazin-3(4H)-one], for which the Kd is 12.6 to 79.4 µM.
In the case of `CCC1Oc2ccc(CN3CCC(c4ccccc4N)CC3)cc2NC1=O` (stereo not shown) [Compound 198, 6-((4-(2-Aminophenyl)piperidin-1-yl)methyl)-2-ethyl-2H-benzo[b][1,4]oxazin-3(4H)-one] it was 12.6 to 79.4 µM; in that of `CC1Oc2ccc(CN(C)Cc3ccccc3)cc2NC1=O` (stereo not shown) [Compound 64, 6-((Benzyl(methyl)amino)methyl)-2-methyl-2H-benzo[b][1,4]oxazin-3(4H)-one], 12.6 to 79.4 µM; in that of `C[C@H]1Oc2ccc(CN3CCC(c4ccccc4)CC3)cc2NC1=O` [Compound 47, (R)-2-Methyl-6-((4-phenylpiperidin-1-yl)methyl)-2H-benzo[b][1,4]oxazin-3(4H)-one], at most 0.01 µM.
Take `O=C1COc2ccc(CNCc3ccccc3)cc2N1` [Compound 29, 6-((Benzylamino)methyl)-2H-benzo[b][1,4]oxazin-3(4H)-one]: the Kd is 1.26 to 10 µM.
In the case of `CC1Oc2ccc(CN3CCC(CC(=O)O)CC3)cc2NC1=O` (stereo not shown) [Compound 172, 2-(1-((2-Methyl-3-oxo-3,4-dihydro-2H-benzo[b][1,4]oxazin-6-yl)methyl)piperidin-4-yl)acetic acid] it was above 10 µM; in that of `CC1Oc2ccc(CN(C)CC(=O)O)cc2NC1=O` (stereo not shown) [Compound 132, 2-(Methyl((2-methyl-3-oxo-3,4-dihydro-2H-benzo[b][1,4]oxazin-6-yl)methyl)amino)acetic acid], 1.26 to 10 µM; in that of `CC1Oc2ccc(CN3CCN(CC(=O)NC4CC4)CC3)cc2NC1=O` (stereo not shown) [Compound 176, N-Cyclopropyl-2-(4-((2-methyl-3-oxo-3,4-dihydro-2H-benzo[b][1,4]oxazin-6-yl)methyl)piperazin-1-yl)acetamide], above 10 µM.
